Test results as given in PubChem BioAssay (NCI).
“And” between values parts separate entries of the source, which are not always exact repeats. Equal values may be shown once.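 48-hour exposure; five concentrations; linearly interpolated endpoints. Here, GI50 denotes the concentration required for 50% inhibition of growth. TGI marks complete inhibition of growth.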

How the values were obtained:
Assay in all cases: NCI tumour cell line growth inhibition, 48 h
SK-OV-3 ovarian = system: SK-OV-3 ovarian
HT29 colon = system: HT29 colon
NCI-H226 lung = system: NCI-H226 lung
HCT-15 colon = system: HCT-15 colon
OVCAR-4 ovarian = system: OVCAR-4 ovarian
SF-539 CNS = system: SF-539 CNS
HCC-2998 colon = system: HCC-2998 colon
SNB-75 CNS = system: SNB-75 CNS
786-0 renal = system: 786-0 renal
MALME-3M melanoma = system: MALME-3M melanoma

Row | SMILES | GI50 (SK-OV-3 ovarian) [nM] | TGI (SK-OV-3 ovarian) | GI50 (HT29 colon) | TGI (HT29 colon) | GI50 (NCI-H226 lung) [nM] | GI50 (HCT-15 colon) [nM] | TGI (HCT-15 colon) | GI50 (OVCAR-4 ovarian) [nM] | TGI (OVCAR-4 ovarian) | GI50 (SF-539 CNS) [nM] | TGI (SF-539 CNS) | GI50 (HCC-2998 colon) [nM] | TGI (HCC-2998 colon) | GI50 (SNB-75 CNS) [nM] | TGI (SNB-75 CNS) | GI50 (786-0 renal) [nM] | TGI (786-0 renal) | GI50 (MALME-3M melanoma) [nM] | TGI (MALME-3M melanoma) | TGI (NCI-H226 lung)
1 | CCN1C(=O)N(CC)C2C1NN=c1s/c(=C\c3ccc(Cl)cc3Cl)c(=O)n12 (centres undefined) | 44.8 | > 100000 nM | 32.9 nM | 12300 nM | 129 | 35 | > 100000 nM | 79.2 | > 95900 nM | 24.1 | 69.8 nM | 36.7 | 10900 nM | 25.8 | 971 nM | 50.9 | > 48800 nM | 77.7 | > 75000 nM | –
2 | CCc1cccc(C)c1NS(=O)(=O)c1ccccc1 | – | > 100000 nM | – | > 100000 nM | – | – | > 100000 nM | – | > 100000 nM | – | > 100000 nM | – | > 100000 nM | – | > 100000 nM | – | > 100000 nM | – | > 100000 nM | > 100000 nM
3 | O=C(c1ccc2ccccc2c1)c1c(C(F)(F)F)n([O-])c2ccc(C(F)(F)F)cc2[n+]1=O | 1790 | 3200 nM | 439 nM | 1430 nM | 1060 | 732 | 2070 nM | 249 | 607 nM | 1560 | 2970 nM | 1690 | 3270 nM | 640 | 1480 nM | 1290 | 2680 nM | 1200 | 2710 nM | 3350 nM
4 | CC1CC(C)CC(C)C(O)/C(C#N)=C/C=C/CC(C2CCCC2C(=O)O)OC(=O)CC(O)C(C)C1 (centres undefined) | 36.9 | 217 nM and 91.7 nM | 64.4 nM and 28.6 nM | 574 nM and 321 nM | 31 | 22.9 | 114 nM and 104 nM | 126 | 510 nM and 1890 nM | 5.1 | 21.3 nM and 14.6 nM | 29.7 | 102 nM and 72.6 nM | 26.7 | 85.3 nM and 110 nM | 21.3 | 171 nM and 53.6 nM | 115 | 312 nM and 106 nM | 95.1 nM and 29 nM
5 | O=C1C[C@H]2CCCN2[C@@H](c2ccccc2)C1 | – | > 100000 nM | – | > 100000 nM | – | – | > 100000 nM | – | > 100000 nM | – | > 100000 nM | – | > 100000 nM | – | > 100000 nM | – | > 100000 nM | – | > 100000 nM | > 100000 nM
6 | C=CCc1c(Cl)nc(Cl)nc1Cl | – | 9120 nM | – | 805 nM | – | – | 938 nM | – | 840 nM | – | 3780 nM | – | 3400 nM | – | 5870 nM | – | 368 nM | – | 1470 nM | 1690 nM
7 | O=C(O)c1nc(NCc2nc3cc(Cl)ccc3o2)n[nH]1 | > 100000 | > 100000 nM | > 100000 nM | > 100000 nM | > 100000 | > 100000 | > 100000 nM | > 100000 | > 100000 nM | > 100000 | > 100000 nM | > 100000 | > 100000 nM | > 100000 | > 100000 nM | > 100000 | > 100000 nM | > 100000 | > 100000 nM | > 100000 nM
